Test results from patent US6426362B1, “Formulations of tocopherols and methods of making and using them” (Galileo Laboratories, Inc., priority 1999, dated 2002).

Test system: Oxidatively competent cells
Assay: Antimycin A-induced cell death in oxidatively competent cells, SYTOX assay after 4 hours
Format: cell-based, rat-human hybrid (GCL1)
Conditions: for cell death when tested individually: highest concentrations tested; for Cell Death (%): ± SD; for potency among the tocopherols tested: Table 1 comparison
Excerpt: The GCL1 (WiF-B) liver cell line is a hybrid originating from the fusion of rat hepatoma cells (fao) and human fibroblasts (W138). Cassio et al. (1991) J. Cell Biol. 115:1397-1408; Shanks et al. (1994) J. Cell Science 107:813-825. […] Ihrke et al. 1993, J. Cell Biol. 123:1761-1775. At greater than 80% confluence, more than 80% of the cells participate in forming one or more phaselucent, spherical structures that are located between cells, termed bile canicular-like spaces. In contrast to the majority of cell lines maintained in culture which are fermentative, GCL1 cells, when at their maximal density and polarity, are highly oxidative (i.e., they can be readily killed by inhibitors of oxidative phosphorylation or electron transport uncouplers). […] These cells are amenable to use in high throughput screening (HTS) technology.
Energetically competent cells are seeded onto 96-well plates at 1×10^3/well or 2.5×10^3/well as passage 15. The cells are grown in DMEM with 10% FBS and 1.5 g/L sodium bicarbonate for 24 or 48 hours to reach 85% confluence. The cells are washed once with HBSS and then 100 μl of HBSS containing different concentration of AA (Sigma Chemical Co., Cat # A 8674) is added to the cells. AA is dissolved in DMSO to make a stock solution of 50 mM, then diluted with HBSS to 100, 50, 25, 12.5, 6.25, 3.125, and 1.56 μM for dose-response curves. The cells, with or without AA, are incubated at 37° C. in a 5% CO2 humidified incubator for 1, 3, and 5 hours. The concentration of AA is chosen to induce 75% or 100% cell death as a screening dose to test the effect of tocopherols to protect against AA-induced cell toxicity. The concentration of agents used for screening will be dependent upon the agents. Certain control groups contain 100 μl of HBSS only.
SYTOX Green nucleic acid stain is a high-affinity nucleic acid stain that easily penetrates cells with a compromised plasma membrane but will not cross the membrane of live cells. The nucleic acids of dead cells fluoresce bright green at 524 nm when excited with the 488 nm spectral source or with any other 450-500 nm source. […] In the cell viability assay chemical ischemia is created in cells that are incubated with the SYTOX dye. The compound antimycin is used to simulate ischemia at the same time as stimulating the cells with forskolin. […] The assay is performed on cells grown in 96-well format allowing high throughput screening of compounds.
Materials: (i)SYTOX Green dye, supplied as a 5 mM solution in DMSO (Molecular Probes # S-7020) is stored at −20° C. until use. ii.) Antimycin-A: (Sigma # A-8674) dissolve […] in 10 ml of DMSO to make a 10 mM stock solution. Aliquot at 100 μl. This 10 mM stock is then diluted to 1 mM with DMSO and aliquoted at 25 μL. Both the 10 mM and the 1 mM are stored at −20° C. until use. (iii) Forskolin (Sigma # F-6886), dissolve 50 mg aliquot in 1.62 ml of DMSO to make a 100 mM stock solution. Aliquot at 100 μl and store at −20° C. until use. iv.) HBSS-SYTOX-FORSKOLIN-ANTIMYCIN (H-S-F-A) solution: H-S-F-A solution is made up fresh prior to each assay in sterile 175 ml or 225 ml Falcon bottles. The working concentrations for the assay are 3 μM SYTOX, 50 μM Forskolin and 30 μM Antimycin.
Cells are grown in 96-well black plates (with or without clear bottoms) at a density of 1000 cells per well for 24 hours. The necessary number of 96-well plates containing the specific cell type are obtained and placed in the laminar flow safety cabinet. A sterile microtiter basin is filled with the appropriate volume of pre-warmed 1×HBSS. Using aseptic technique and an 8-channel aspirator, the media is carefully removed from the cells and replaced with 200 μl of 1×HBSS. This is done as quickly as possible to prevent the cells drying out. The plates are then placed in the humidified 37° C. incubators of the Biomek 2000 Side Loader.

[1] = dose 1.2 μg/ml, with antimycin A, 4 hours, SYTOX
[2] = dose 3.7 μg/ml, with antimycin A, 4 hours, SYTOX
[3] = dose 11 μg/ml, with antimycin A, 4 hours, SYTOX
[4] = dose 33 μg/ml, with antimycin A, 4 hours, SYTOX
[5] = dose 100 μg/ml, with antimycin A, 4 hours, SYTOX
[6] = salts of (+)alpha-tocopherol, dose of tocopherol 1.2 μg/ml
[7] = salts of (+)alpha-tocopherol, dose of tocopherol 3.7 μg/ml
[8] = salts of (+)alpha-tocopherol, dose of tocopherol 11 μg/ml
[9] = salts of (+)alpha-tocopherol, dose of tocopherol 33 μg/ml
[10] = salts of (+)alpha-tocopherol, dose of tocopherol 100 μg/ml

Compound: Cc1c(C)c2c(c(C)c1O)CCC(C)(CCCC(C)CCCC(C)CCCC(C)C)O2 (racemic) [(+/−) alpha-tocopherol, 2,5,7,8-tetramethyl-2-(4′,8′,12′-trimethyltridecyl)-6-chromanol]
- protection against stress-induced cell death ((+/−) alpha-tocopherol alone at 10 μg/ml): about 15%
- cell death (Example 7, alone at 10 μg/ml (highest concentration tested)): 53%
- cell death (Example 8, tocopherol alone at 10 μg/ml): 79.4%
- cell death when tested individually (daidzein experiment): over half of the cells died
- Cell Death (%) [1]: 77.2% ± 0.8
- Cell Death (%) [2]: 73.5% ± 1.2
- Cell Death (%) [3]: 52.4% ± 3.4
- Cell Death (%) [4]: 44.2% ± 1.2
- Cell Death (%) [5]: 19.7% ± 2.9

Compound: Cc1c(C)c2c(c(C)c1O)CC[C@@](C)(CCC[C@H](C)CCC[C@H](C)CCCC(C)C)O2 (relative stereo) [(+) alpha-tocopherol, [2R-2R*(4R*,8R*)]-3,4-dihydro-2,5,7,8-tetramethyl-2-(4,8,12-trimethyltridecyl)-2H-1-benzopyran-6-ol]
- Cell Death (%) [1]: 77.0% ± 2.5
- Cell Death (%) [2]: 70.13% ± 5.8
- Cell Death (%) [3]: 64.4% ± 3.1
- Cell Death (%) [4]: 49.8% ± 6.0
- Cell Death (%) [5]: 33.78% ± 1.5

Compound: Cc1cc(O)cc2c1O[C@](C)(CCC[C@H](C)CCC[C@H](C)CCCC(C)C)CC2 (relative stereo) [(+) delta-tocopherol, [2R-[2R*(4R*,8R*)]]-3,4-dihydro-2,8-dimethyl-2-(4,8,12-trimethyltridecyl)-2H-1-benzo-pyran-6-ol]
- potency among the tocopherols tested: most potent
- Cell Death (%) [1]: 61.3% ± 4.2
- Cell Death (%) [2]: 39.3% ± 3.8
- Cell Death (%) [3]: 21.3% ± 1.0
- Cell Death (%) [4]: −8.19% ± 1.4
- Cell Death (%) [5]: −68.19% ±

Compound: Cc1c(O)cc2c(c1C)OC(C)(CCCC(C)CCCC(C)CCCC(C)C)CC2 (centres unmarked) [+ gamma-tocopherol, 3,4-dihydro-2,7,8-trimethyl-2-(4,8,12-trimethyltridecyl)-2H-1-benzyopyran-6-ol]
- cell death (Example 7, alone at 1 μg/ml (highest concentration tested)): 62.5%
- potency among the tocopherols tested: most potent
- Cell Death (%) [1]: 76.8 ± 3.1%
- Cell Death (%) [2]: 69.3 ± 3.3%
- Cell Death (%) [3]: 37.2 ± 0.7%
- Cell Death (%) [4]: 16.7 ± 1.9%
- Cell Death (%) [5]: −8.5 ± 3.3%
- protection against stress-induced cell death (gamma-tocopherol alone, 0.03-0.3 μg/ml): not protective by itself

Compound: CC(=O)Oc1c(C)c(C)c2c(c1C)CCC(C)(CCC[C@H](C)CCC[C@H](C)CCCC(C)C)O2 (stereo partly drawn) [alpha-tocopherol acetate]
- Cell Death (%) [6]: 73.2% ± 3.3
- Cell Death (%) [7]: 77.5% ± 4.9
- Cell Death (%) [8]: 71.1% ± 1.5
- Cell Death (%) [9]: 64.8% ± 4.9
- Cell Death (%) [10]: 38.% ± 2.3
- Cell Death (%) (salts of (+)alpha-tocopherol, dose of tocopherol 100 μg/ml, listed as acetate salt of alpha-tocopherol): 38%

Compound: Cc1c(C)c2c(c(C)c1OC(=O)c1cccnc1)CC[C@@](C)(CCC[C@H](C)CCC[C@H](C)CCCC(C)C)O2 [alpha-tocopherol nicotinate]
- Cell Death (%) [6]: 81.0 ± 2.5%
- Cell Death (%) [7]: 76.8 ± 7.0%
- Cell Death (%) [8]: 74.0 ± 2.4%
- Cell Death (%) [9]: 77.5 ± 3.0%
- Cell Death (%) [10]: 67.5 ± 2.8%

Compound: Cc1c(C)c2c(c(C)c1OP(=O)(O)O)CC[C@@](C)(CCC[C@H](C)CCC[C@H](C)CCCC(C)C)O2 [alpha-tocopherol phosphate]
- Cell Death (%) [6]: 79.7 ± 8.7%
- Cell Death (%) [7]: 76.5 ± 4.2%
- Cell Death (%) [8]: 83.9 ± 4.4%
- Cell Death (%) [9]: 47.2 ± 10.8%
- Cell Death (%) [10]: 43.2 ± 17.4%

Compound: Cc1c(C)c2c(c(C)c1OC(=O)CCC(=O)O)CC[C@@](C)(CCC[C@H](C)CCC[C@H](C)CCCC(C)C)O2 [alpha-tocopherol succinate]
- Cell Death (%) [6]: 85.8 ± 1.4%
- Cell Death (%) [7]: 83.9 ± 0.3%
- Cell Death (%) [8]: 85.5 ± 2.5%
- Cell Death (%) [9]: 90.4 ± 7.4%
- Cell Death (%) [10]: 98.7 ± 6.0%

Compound: Cc1c(C)c2c(c(C)c1O)CCC(C)(CCCC(C)CCCC(C)CCCC(C)C)O2 (stereo not drawn) [alpha-tocopherol, 2,5,7,8-tetramethyl-2-(4′,8′,12′-trimethyltridecyl)-6-chromanol]
- cell death when tested individually (biochanin A experiment): about half of the cells died

Compound: COc1ccc(-c2coc3cc(O)cc(O)c3c2=O)cc1 [biochanin A, 5,7-dihydroxy-4′-methoxyiso-flavone]
- cell death when tested individually (biochanin A experiment): about half of the cells died

Compound: O=c1c(-c2ccc(O)cc2)coc2cc(O)ccc12 [daidzein, 7-hydroxy-3-(4-hydroxyphenyl)-4H-1-benzopyran-4-one]
- cell death when tested individually (daidzein experiment): over half of the cells died

Compound: COc1ccc(-c2cc(=O)c3c(O)cc(O[C@@H]4O[C@H](CO[C@@H]5O[C@@H](C)[C@H](O)[C@@H](O)[C@H]5O)[C@@H](O)[C@H](O)[C@H]4O)cc3o2)cc1O [diosmin, reference compound]
- protection against stress-induced cell death (diosmin alone at 100 μM): no protection
- protection against stress-induced cell death (diosmin alone, 3.3-100 μM): not protective by itself
- protection against stress-induced cell death (diosmin alone, 33-100 μM): not effective

Compound: COc1ccc([C@@H]2CC(=O)c3c(O)cc(O)cc3O2)cc1O [hesperetin, (S)-2,3-dihydro-5,7-dihydroxy-2-(3-hydroxy-4-methoxyphenyl)-4H-1-benzopyran-4-one]
- efficacy when tested separately (2 and 50 μM heperitin, 0.22 and 3.6 μg/ml tocopherol, cell death four hours later): generally ineffective
